Measured values from patent US8445501B2, “Substituted 7-carboxamido-pyrrolo[3,2-d]pyrimidines” (Takeda GmbH, priority 2008, dated 2013).

Each compound was assayed against T1, human PDE5 (Homo sapiens, UniProt O76074) (assay: Inhibition of the type 5 phosphodiesterase (PDE5) activity, modified SPA test with platelet lysate). Conditions: PDE5 from human platelet lysate, 0.5 μM cGMP.
T1 construct: from tissue; host or cells: platelets from fresh blood of human donors (lysate, 10,000 g supernatant)
Assay type: biochemical
Outline: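 Human platelet lysate (10,000 g supernatant) as PDE5 source in SPA with 0.5 μM cGMP plus [3H]cGMP tracer, pH 7.4, 5 mM Mg2+, 1 μM motapizone and 10 nM PDE2 inhibitor; 10–20% conversion. 5 min preincubation, 15 min at 37 °C, stopped with SPA beads/IBMX. IC50 by non-linear regression.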

Structure (SMILES) | IC50 [nM]
COc1ccc(-c2ncnc3c(C(=O)NC4CCN(C(=O)C5(O)CC5)CC4)c[nH]c23)c(OCC2CC2)c1 [Example 207, 4-(2-Cyclopropylmethoxy-4-methoxy-phenyl)-5H-pyrrolo[3,2-d]pyrimidine-7-carboxylic acid {1-[1-(1-hydroxy-cyclopropyl)-methanoyl]-piperidin-4-yl}-amide] | 0.245
COc1ccc(OCC2CC2)c(-c2ncnc3c(C(=O)N[C@H]4CC[C@@H](NC(=O)C5(O)CC5)CC4)c[nH]c23)c1 [Example 209, cis-4-(2-Cyclopropylmethoxy-5-methoxy-phenyl)-5H-pyrrolo[3,2-d]pyrimidine-7-carboxylic acid {4-[(1-hydroxy-cyclopropanecarbonyl)-amino]-cyclohexyl}-amide] | 0.692
COc1ccc(OCC2CC2)c(-c2ncnc3c(C(=O)NC4CCN(C(=O)CO)CC4)c[nH]c23)c1 [Example 211, 4-(2-Cyclopropylmethoxy-5-methoxy-phenyl)-5H-pyrrolo[3,2-d]pyrimidine-7-carboxylic acid [1-(2-hydroxy-acetyl)piperidin-4-yl]-amide] | 2.34
COc1ccc(OCC2CC2)c(-c2ncnc3c(C(=O)NC4CCN(C(=O)[C@H](C)O)CC4)c[nH]c23)c1 [Example 212, 4-(2-Cyclopropylmethoxy-5-methoxy-phenyl)-5H-pyrrolo[3,2-d]pyrimidine-7-carboxylic acid [1-((S)-2-hydroxy-propionyl)piperidin-4-yl]-amide] | 1.07
COc1ccc(OCC2CC2)c(-c2ncnc3c(C(=O)NC4CCN(C(=O)C5(O)CC5)CC4)c[nH]c23)c1 [Example 213, 4-(2-Cyclopropylmethoxy-5-methoxy-phenyl)-5H-pyrrolo[3,2-d]pyrimidine-7-carboxylic acid [1-(1-hydroxy-cyclopropanecarbonyl)-piperidin-4-yl]-amide] | 0.55
O=C(NC1CCN(C(=O)CO)CC1)c1c[nH]c2c(-c3cc(F)ccc3OCC3CC3)ncnc12 [Example 220, 4-(2-Cyclopropylmethoxy-5-fluoro-phenyl)-5H-pyrrolo[3,2-d]pyrimidine-7-carboxylic acid [1-(2-hydroxy-acetyl)piperidin-4-yl]-amide] | 7.41
C[C@H](O)C(=O)N1CCC(NC(=O)c2c[nH]c3c(-c4ccccc4OCC4CC4)ncnc23)CC1 [Example 227, 4-(2-Cyclopropylmethoxy-phenyl)-5H-pyrrolo[3,2-d]pyrimidine-7-carboxylic acid [1-((S)-2-hydroxy-propionyl)-piperidin-4-yl]-amide] | 14.1
COc1cc(-c2ncnc3c(C(=O)NC4CCN(C(=O)[C@H](C)O)CC4)c[nH]c23)c(OCC2CC2)cc1F [Example 228, 4-(2-Cyclopropylmethoxy-4-fluoro-5-methoxy-phenyl)-5H-pyrrolo[3,2-d]pyrimidine-7-carboxylic acid [1-((S)-2-hydroxy-propionyl)-piperidin-4-yl]-amide] | 0.162
COc1cc(-c2ncnc3c(C(=O)N[C@@H]4CCCN(C(=O)CO)C4)c[nH]c23)c(OCC2CC2)cc1F [Example 229, 4-(2-Cyclopropylmethoxy-4-fluoro-5-methoxy-phenyl)-5H-pyrrolo[3,2-d]pyrimidine-7-carboxylic acid [(R)-1-(2-hydroxy-acetyl)piperidin-3-yl]-amide] | 0.2
COc1cc(-c2ncnc3c(C(=O)N[C@@H]4CCCN(C(=O)[C@H](C)O)C4)c[nH]c23)c(OCC2CC2)cc1F [Example 230, 4-(2-Cyclopropylmethoxy-4-fluoro-5-methoxy-phenyl)-5H-pyrrolo[3,2-d]pyrimidine-7-carboxylic acid [(R)-1-((S)-2-hydroxy-propionyl)-piperidin-3-yl]-amide] | 0.24
COc1cc(-c2ncnc3c(C(=O)N[C@@H]4CCN(C(=O)CO)C4)c[nH]c23)c(OCC2CC2)cc1F [Example 231, 4-(2-Cyclopropylmethoxy-4-fluoro-5-methoxy-phenyl)-5H-pyrrolo[3,2-d]pyrimidine-7-carboxylic acid [(R)-1-(2-hydroxy-acetyl)-pyrrolidin-3-yl]amide] | 0.692
COc1cc(-c2ncnc3c(C(=O)N[C@@H]4CCN(C(=O)[C@H](C)O)C4)c[nH]c23)c(OCC2CC2)cc1F [Example 232, 4-(2-Cyclopropylmethoxy-4-fluoro-5-methoxy-phenyl)-5H-pyrrolo[3,2-d]pyrimidine-7-carboxylic acid [(R)-1-((S)-2-hydroxy-propionyl)-pyrrolidin-3-yl]amide] | 0.355

Second part, the compound after the results:

IC50 [nM] | Structure (SMILES)
1.86 | COc1ccc(OCC2CC2)c(-c2ncnc3c(C(=O)N[C@H]4CC[C@@H](NC(=O)CO)CC4)c[nH]c23)c1 [Example 208, cis-4-(2-Cyclopropylmethoxy-5-methoxy-phenyl)-5H-pyrrolo[3,2-d]pyrimidine-7-carboxylic acid [4-(2-hydroxy-acetylamino)-cyclohexyl]-amide]
0.646 | COc1ccc(OCC2CC2)c(-c2ncnc3c(C(=O)N[C@H]4CC[C@H](NC(=O)C5(O)CC5)CC4)c[nH]c23)c1 [Example 210, trans-4-(2-Cyclopropylmethoxy-5-methoxy-phenyl)-5H-pyrrolo[3,2-d]pyrimidine-7-carboxylic acid {4-[(1-hydroxy-cyclopropanecarbonyl)-amino]-cyclohexyl}-amide]
2.63 | O=C(CO)N[C@H]1CC[C@@H](NC(=O)c2c[nH]c3c(-c4ccc(F)cc4OCC4CC4)ncnc23)CC1 [Example 214, cis-4-(2-Cyclopropylmethoxy-4-fluoro-phenyl)-5H-pyrrolo[3,2-d]pyrimidine-7-carboxylic acid [4-(2-hydroxy-acetylamino)-cyclohexyl]-amide]
2.57 | C[C@H](O)C(=O)N[C@H]1CC[C@@H](NC(=O)c2c[nH]c3c(-c4ccc(F)cc4OCC4CC4)ncnc23)CC1 [Example 215, cis-4-(2-Cyclopropylmethoxy-4-fluoro-phenyl)-5H-pyrrolo[3,2-d]pyrimidine-7-carboxylic acid [4-((S)-2-hydroxy-propionylamino)-cyclohexyl]-amide]
1.51 | O=C(N[C@H]1CC[C@@H](NC(=O)C2(O)CC2)CC1)c1c[nH]c2c(-c3ccc(F)cc3OCC3CC3)ncnc12 [Example 216, cis-4-(2-Cyclopropylmethoxy-4-fluoro-phenyl)-5H-pyrrolo[3,2-d]pyrimidine-7-carboxylic acid {4-[(1-hydroxy-cyclopropanecarbonyl)-amino]-cyclohexyl}-amide]
2.24 | O=C(CO)N[C@H]1CC[C@H](NC(=O)c2c[nH]c3c(-c4ccc(F)cc4OCC4CC4)ncnc23)CC1 [Example 217, trans-4-(2-Cyclopropylmethoxy-4-fluoro-phenyl)-5H-pyrrolo[3,2-d]pyrimidine-7-carboxylic acid [4-(2-hydroxy-acetylamino)-cyclohexyl]-amide]
2.51 | C[C@H](O)C(=O)N[C@H]1CC[C@H](NC(=O)c2c[nH]c3c(-c4ccc(F)cc4OCC4CC4)ncnc23)CC1 [Example 218, trans-4-(2-Cyclopropylmethoxy-4-fluoro-phenyl)-5H-pyrrolo[3,2-d]pyrimidine-7-carboxylic acid [4-((S)-2-hydroxy-propionylamino)-cyclohexyl]-amide]
2 | O=C(N[C@H]1CC[C@H](NC(=O)C2(O)CC2)CC1)c1c[nH]c2c(-c3ccc(F)cc3OCC3CC3)ncnc12 [Example 219, trans-4-(2-Cyclopropylmethoxy-4-fluoro-phenyl)-5H-pyrrolo[3,2-d]pyrimidine-7-carboxylic acid {4-[(1-hydroxy-cyclopropanecarbonyl)-amino]-cyclohexyl}-amide]
6.46 | C[C@H](O)C(=O)N1CCC(NC(=O)c2c[nH]c3c(-c4cc(F)ccc4OCC4CC4)ncnc23)CC1 [Example 221, 4-(2-Cyclopropylmethoxy-5-fluoro-phenyl)-5H-pyrrolo[3,2-d]pyrimidine-7-carboxylic acid [1-((S)-2-hydroxy-propionyl)piperidin-4-yl]-amide]
1.91 | O=C(CO)N[C@H]1CC[C@H](NC(=O)c2c[nH]c3c(-c4cc(F)ccc4OCC4CC4)ncnc23)CC1 [Example 222, trans-4-(2-Cyclopropylmethoxy-5-fluoro-phenyl)-5H-pyrrolo[3,2-d]pyrimidine-7-carboxylic acid [4-(2-hydroxy-acetylamino)-cyclohexyl]-amide]
6.92 | O=C(CO)N[C@H]1CC[C@H](NC(=O)c2c[nH]c3c(-c4ccccc4OCC4CC4)ncnc23)CC1 [Example 224, trans-4-(2-Cyclopropylmethoxy-phenyl)-5H-pyrrolo[3,2-d]pyrimidine-7-carboxylic acid [4-(2-hydroxy-acetylamino)-cyclohexyl]-amide]
7.08 | C[C@H](O)C(=O)N[C@H]1CC[C@H](NC(=O)c2c[nH]c3c(-c4ccccc4OCC4CC4)ncnc23)CC1 [Example 225, trans-4-(2-Cyclopropylmethoxy-phenyl)-5H-pyrrolo[3,2-d]pyrimidine-7-carboxylic acid [4-((S)-2-hydroxy-propionylamino)-cyclohexyl]-amide]
3.39 | O=C(N[C@H]1CC[C@H](NC(=O)C2(O)CC2)CC1)c1c[nH]c2c(-c3ccccc3OCC3CC3)ncnc12 [Example 226, trans-4-(2-Cyclopropylmethoxy-phenyl)-5H-pyrrolo[3,2-d]pyrimidine-7-carboxylic acid {4-[(1-hydroxy-cyclopropanecarbonyl)-amino]-cyclohexyl}-amide]
0.759 | COc1cc(OCC2CC2)c(-c2ncnc3c(C(=O)N[C@H]4CC[C@H](NC(=O)CO)CC4)c[nH]c23)cc1F [Example 233, trans-4-(2-Cyclopropylmethoxy-5-fluoro-4-methoxy-phenyl)-5H-pyrrolo[3,2-d]pyrimidine-7-carboxylic acid [4-(2-hydroxy-acetylamino)-cyclohexyl]-amide]
